“Also recorded” adds a separate entry of the source. Non-standard residues stand in square brackets, D forms with d. Residues, ends and D or L forms follow the SMILES beside them. Dmt = Cc1cc(O)cc(C)c1C[C@H](N)C(=O)O
Legend:
[1] = test system: isolated perfused guinea pig heart; experiment: Ischemia-reperfusion myocardial stunning in isolated perfused heart (Langendorff); conditions: 1 nM
Procedure: Guinea pig hearts were rapidly isolated, and the aorta was cannulated in situ and perfused in a retrograde fashion with an oxygenated Krebs-Henseleit solution (pH 7.4) at 34° C. The heart was then excised, mounted on a modified Langendorff perfusion apparatus, and perfused at constant pressure (40 cm H2O). Contractile force was measured with a small hook inserted into the apex of the left ventricle and the silk ligature tightly connected to a force-displacement transducer. Coronary flow was measured by timed collection of pulmonary artery effluent.
Reperfusion was carried out with the same solution used prior to ischemia.

Sprague-Dawley rats [2] = experiment: Assessment of arrhythmias in infarction/reperfusion; format: in vivo, rat; conditions: 3 mg/kg IP twice, entire study period
Procedure: (§1) Adult male […] rats (F344 strain, National Institute of Aging, maintained by Harian Sprague-Dawley Inc.), weighting between 285 and 425 gm, were used. […]
An ECG was recorded continuously from a standard lead II (AC AMP 700) inserted into the limbs of all rats. […] The cardiac arrhythmias were monitored and assessed in accordance with the Lambeth Convention. […] A validated score was used to quantify the severity of cardiac arrhythmias. […]
All values are expressed as mean±standard error of mean (S.E.M.). […] Differences among groups in body weight, heart rate, arrhythmia, area at risk as a percentage of the left ventricle, and area of infarction as a percentage of the area at risk were analyzed using ANOVA. If significant differences were detected, comparisons between the control group and the 2 treatment groups were conducted using the Mann-Whitney U-test. […]

N2A cells = experiment: tBHP-induced mitochondrial depolarization (TMRM, confocal); format: cell-based; conditions: 50 μM tBHP, 1 nM peptide, 6 h
Procedure: FIG. 7. SS-31 protected against tBHP-induced mitochondrial depolarization and viability. N2A cells were plated in glass bottom dishes and treated with (A) control, or with (B) 50 μM tBHP, alone or with (e) 1 nM SS-31, for 6 hours. Cells were loaded with TMRM (20 nM) and imaged by confocal laser scanning microscopy using ex/em of 552/570 nm.
To investigate whether SS-31 prevents mitochondria) depolarization caused by tBHP, N2A cells were treated with 50 μM tBHP for 6 h.

[3] = test system: mitochondrial permeability transition (MPT) in isolated mitochondria; experiment: Mitochondrial membrane potential and MPT measured with TMRM; format: biochemical, mouse; conditions: pretreatment 10 μM
Procedure: In addition to having no direct effect on mitochondrial potential, [Dmt^1]DALDA was able to protect against MPT induced by Ca^2+ overload.
3-Nitropropionic acid (3NP) is an irreversible inhibitor of succinate dehydrogenase in complex II of the electron transport chain. Addition of 3NP (1 mM) to isolated mitochondria caused dissipation of mitochondrial potential and onset of MPT (FIG. 2C).

isolated mitochondria [4] = experiment: Mitochondrial swelling (absorbance 540 nm or light scattering 570 nm); format: biochemical, mouse; conditions: 50 μM peptide, light scattering at 570 nm
Procedure: (§2) MPT pore opening results in mitochondrial swelling. We examined the effects of [Dmt^1]DALDA on mitochondrial swelling by measuring reduction in absorbance at 540 nm (A540). The mitochondrial suspension was then centrifuged and cytochrome c in the mitochondrial pellet and supernatant determined by a commercially-available ELISA kit.
(§3) The methods for study are as described above for SS-02. In this example, mitochondrial swelling was measured using light scattering monitored at 570 nm.

Sprague-Dawley rats [5] = experiment: Myocardial infarction/reperfusion, area at risk and area of infarction; format: in vivo, rat; conditions: 3 mg/kg IP 30 min before ligation and 5 min before reperfusion; 1 h ischemia, 1 h reperfusion
Procedure: as §1
After anesthesia with ketamine (90 mg/kg IP) and xylazine (4 mg/kg IP), a tracheotomy was performed, and the rat was intubated with polyethylene tube and ventilated (Harvard Rodent Ventilator model 683) with room air and a tidal volume of 0.65 ml/100 gm of body weight at 90 breaths per minute. […] Peripheral limb electrodes were inserted subcutaneously and electrocardiogram was monitored throughout the procedure. […]
At the end of reperfusion, the left coronary artery was briefly re-occluded and Evans blue dye solution (2 ml of 2%, Sigma) was slowly injected into the jugular vein to distinguish the perfused area (blue staining) from the area at risk (no staining). […] After a 14-day formalin immersion, the slices were scanned again and all scanned areas were quantified with NIH Imagesoftware. […]

[6] = Body weight and heart rate during the infarction/reperfusion experiment; format: in vivo, rat
Procedure: Adult male […] rats (F344 strain, National Institute of Aging, maintained by Harian Sprague-Dawley Inc.), weighting between 285 and 425 gm, were used. Twenty-four rats (n=8/group) were randomly assigned to one of three groups: (1) Control group was given 0.4 ml of saline as an intra-peritoneal (IP) injection 30 minutes before the ligation of left anterior descending coronary artery, followed by same IP dose injection 5 minutes before reperfusion; (2) SS-31 group was treated with SS-31 (3 mg/kg dissolved in 0.4 ml of saline) as an IP injection 30 minutes before the ligation followed by same IP dose injection as maintenance 5 minutes before reperfusion; and (3) SS-20 group was treated with SS-20 (3 mg/kg dissolved in 0.4 ml of saline) as an IP injection 30 minutes before the ligation followed by same dose IP injection as maintenance just 5 minutes before reperfusion. Also, Sham-operated rats (n=3) were used to account for possible effects related to the surgical protocol. All procedures were performed in a blinded manner, with the groups assigned letters and their identities unknown to the operators. Likewise, the two independent investigators analyzing the data were blind to the treatment assignments.
After anesthesia with ketamine (90 mg/kg IP) and xylazine (4 mg/kg IP), a tracheotomy was performed, and the rat was intubated with polyethylene tube and ventilated (Harvard Rodent Ventilator model 683) with room air and a tidal volume of 0.65 ml/100 gm of body weight at 90 breaths per minute. Body temperature was maintained at 37° C. by using a heated operating table. The internal jugular vein was surgically exposed and a polyethylene tube was inserted for Evans blue dye solution injection. Peripheral limb electrodes were inserted subcutaneously and electrocardiogram was monitored throughout the procedure.
An ECG was recorded continuously from a standard lead II (AC AMP 700) inserted into the limbs of all rats. The ECG was printed at 25 mm/second. The cardiac arrhythmias were monitored and assessed in accordance with the Lambeth Convention. The assessment was performed in a blinded manner using the original paper recordings. A validated score was used to quantify the severity of cardiac arrhythmias. The score consisted of six types: 0, no ventricular extrasystoles (VES), ventricular tachycardia (VT) or ventricular fibrillation (VF); 1=VES; 2=one to five episodes of VT (more than four coupled VES); 3=more than five episodes of VT and/or one VF; 4=two to five episodes of VF; 5=more than five episodes of VF.
All values are expressed as mean±standard error of mean (S.E.M.). Statistical analyses were performed using SPSS version 10. Differences among groups in body weight, heart rate, arrhythmia, area at risk as a percentage of the left ventricle, and area of infarction as a percentage of the area at risk were analyzed using ANOVA. If significant differences were detected, comparisons between the control group and the 2 treatment groups were conducted using the Mann-Whitney U-test. A two-tailed p<0.05 was regarded as significant.

isolated mitochondria [7] = experiment: Cytochrome c release from isolated mitochondria (ELISA); format: biochemical, mouse; conditions: Ca2+ overload
Procedure: as §2, §3

Cc1cc(O)cc(C)c1C[C@H](NC(=O)[C@H](N)CCCNC(=N)N)C(=O)N[C@@H](CCCCN)C(=O)N[C@@H](Cc1ccccc1)C(N)=O [SS-31, D-Arg-2′6′Dmt-Lys-Phe-NH2] (H-[dR][Dmt]KF-NH2; N-terminus assumed)
cardiac stunning [1]: complete inhibition of cardiac stunning | coronary flow throughout reperfusion [1]: well-sustained | heart rate [1]: no decrease | myocardial contractile force during ischemia-reperfusion ([1]; 30 min global ischemia): tolerated ischemia much better than buffer-treated hearts; also recorded: protects myocardial contractile force | Severity and occurrence rate of cardiac arrhythmias (score) (Sprague-Dawley rats [2]): 5 points | tBHP-induced loss of mitochondrial potential (TMRM fluorescence) (N2A cells): completely blocked; also recorded: protected | MPT induced by Ca2+ overload [3]: same ability to protect; also recorded: prevents onset of MPT | mitochondrial swelling induced by Ca2+ (isolated mitochondria [4]): same ability to protect; also recorded: inhibited mitochondrial swelling | AAR/LV ratio (area at risk relative to left ventricle) (Sprague-Dawley rats [5]): 55.9±1.4% | AI/AAR ratio (area of infarction as percentage of area at risk) (Sprague-Dawley rats [5]): 53.9±1.1% | Heart Rate Baseline ([6]; Baseline): 257 ± 10 | Heart Rate Ischemia ([6]; first column): 184 ± 14 | Heart Rate Ischemia ([6]; second column): 169 ± 15 | Heart Rate Open chest ([6]; Open chest): 236 ± 8 | Heart Rate Reperfusion ([6]; first column): 161 ± 12 | Heart Rate Reperfusion ([6]; second column): 164 ± 13 | Ca2+-induced release of cytochrome c (isolated mitochondria [7]): same ability to protect
